{
  "source": "patent US20260232699A1",
  "about": "“COMPOSITIONS OF A CANNABINOID AND A KINASE INHIBITOR FOR THE TREATMENT OF CANCER” (SINOVEDA CANADA INC., priority 2023, published 2026)",
  "key": {"[1]": {"details": "cited from earlier work"}, "[2]": {"system": "HepG2 cells", "test": "rtPCR gene expression analysis (TaqMan array card)", "type": "cell-based, human", "procedure": "Target cancer gene pathways were analyzed using a custom Taqman® array card exploring 90 unique genes associated with cancer related pathways (Kanehisa, Goto et al. 2010).\nTwo million HepG2 cells in IMDM media with 20% FBS, and 1% ethanol were seeded in T75 flasks and incubated at 37° C., 7.5% CO2 until 70-80% confluent (approx. […]). […] Untreated cells were included as a negative control. Glyceraldehyde-3-phosphate dehydrogenase (GAPDH) was included as an endogenous control and used for normalization of the data.\nFollowing a 6-hour incubation with the test compounds, the RNA was extracted using Invitrogen's Dynabead mRNA DIRECT kit using the recommended protocol to provide 50 μL of a purified mRNA solution. Fifty μL of RT master mix was mixed into the mRNA solution and the mixture left to react at 37° C. for 60 minutes. Reverse transcriptase inactivation was performed at 95° C. for 5 minutes and the resulting cDNA samples were kept at 4° C. until use. Fifty-five microliters of TaqMan Fast Advance master mix were added to an equal amount of cDNA sample containing 1 μg/100 μl of cDNA, which was loaded into each card reservoir. The cards were centrifuged twice at 1200 RPM for 3 minutes in a Legend XFR centrifuge and the rtPCR reaction was conducted in a QuantStudio7 PCR instrument using the recommended settings with 40 amplification cycles. Data processing was done using ThermoFisher's Connect™ application."}, "[3]": {"system": "PDX tumor model (575)", "test": "In vivo PDX model with drug-loaded nanonails", "parameters": "species or system NCG mice", "details": "intra-tumoral nanonail, 72 hours", "procedure": "Drug candidates were mixed with FITC-labeled PEG-5000 with a milligram ratio of 2:8 in a suitable solvent and lyophilized to dryness. Samples of the resultant mixtures (10 mg) were loaded into nanonails (Kibur Medical Inc.), a device invented to test multiple samples in a single tumor. The dimension of the cylindrical device is 4 mm×820 μm containing 18 reservoirs 200 μm wide and 250 μm deep. The loaded devices were kept at −80° C. until tumor implant. NCG mice (female, 8-12 weeks old) from Charles River were injected subcutaneously with 100 μL of LIXF-575 cells per mouse. The body weight of the mice and caliper measurements of the tumors were performed every 3 days until the tumors reached 300-400 mm^3 (about 12 weeks). Nine mice were used for intra-tumoral implantation. […]"}, "[4]": {"system": "HepG2 cells", "test": "HepG2 cell proliferation assay (XTT)", "type": "cell-based, human", "details": "IMDM media with 20% FBS and 1% ethanol, read-out: predetermined IC50 concentrations", "procedure": "HepG2 cells were obtained from the American Type Culture Collection (ATCC). Normal hepatocyte pool of cells was acquired from Xenotech. Cryopreserved cells in DMEM containing 5% DMSO were thawed and diluted 10-fold in phenol red free DMEM media containing 10% fetal bovine serum, 100 μg/ml penicillin/streptomycin, supplemented with Glutamax™ and sodium pyruvate. Subsequently, cells were centrifuged at 20 g for 10 minutes. The cells were resuspended in the same media with added Revitacell® to a concentration of […]. Ninety-six well cell culture treated flat bottom plates were seeded with 7.5×10^3 cells in 100 μl and incubated at 37° C., 7.5% CO2, >95% relative humidity for 18 hours to allow cellular adhesion after which media was replaced with like media (DMEM, IMDM, Williams E) containing 1 to 20% FBS and various test compounds (10 μg/ml to 100 ng/ml). After 48 hours (2 doublings of cells), sodium; 2-(2-methoxy-4-nitro-5-sulfonatophenyl)-3-(2-methoxy-4-nitro-5-sulfophenyl)-N-phenyltetrazol-3-ium-5-carboximidate (XTT) (300 μg/ml) was added, and cells incubated for 2 hours. Formazan production was measured at 450 nm on a Varioskan lux spectrophotometer. Non-specific absorption was measured at 660 nm and subtracted from the reference measurement at 450 nm. Experiments were performed in triplicates (n=3). […]\nThe objectives of this example are to, first, establish the procedure of a two-component interaction study; and second, establish a method of analysis to identify potential interactions among the two components/compounds. […] Following 48 hours of incubation, the IC50 values of various mixtures were obtained and compared with the pure compound's IC50 values and predicted/calculated IC50 values for the various mixtures. […]\nSamples from the serial dilutions were analyzed by LC-MS/MS to orthogonally confirm concentrations. […]\nTo assess potential interactions, the IC50 values for individual cannabinoids in the control lanes were calculated and used to predict and IC50 value for the summation of their individual components."}, "[5]": {"details": "Cell Cycle, 6 h at IC50 concentration, relative to negative control"}, "[6]": {"details": "MAP kinase, 6 h at IC50 concentration, relative to negative control"}, "[7]": {"details": "PI3K pathway, 6 h at IC50 concentration, relative to negative control"}},
  "data": [
    {"compound": "C=C(C)[C@@H]1CCC(C)=C[C@H]1c1c(O)cc(CCCCC)c(C(=O)O)c1O", "note": "[CBDA, cannabidiolic acid]", "values": [
      {"measurement": "times more water soluble compared to CBD", "setting": "[1]; CBDA versus its decarboxylated counterpart", "result": "about 25,000 times"},
      {"measurement": "water solubility", "setting": "[1]", "result": 17.5, "unit": "mg/mL"}
    ]},
    {"compound": "CCCCCc1cc2c(c(O)c1C(=O)O)-c1cc(C)ccc1C(C)(C)O2", "note": "[CBNA, cannabinolic acid]", "values": [
      {"measurement": "ΔΔCt VEGFA", "setting": "[2]; Angiogenesis, 6 h at IC50 concentration, relative to negative control", "result": "−2.861"},
      {"measurement": "ΔΔCt BAX", "setting": "[2]; [5]", "result": "−1.062"},
      {"measurement": "ΔΔCt BECN1", "setting": "[2]; [5]", "result": "−1.7"},
      {"measurement": "ΔΔCt CCND2", "setting": "[2]; [5]", "result": "−1.539"},
      {"measurement": "ΔΔCt CCNE1", "setting": "[2]; [5]", "result": "−2.445"},
      {"measurement": "ΔΔCt CDK1", "setting": "[2]; [5]", "result": 1.051},
      {"measurement": "ΔΔCt CDK2", "setting": "[2]; [5]", "result": 1.102},
      {"measurement": "ΔΔCt MNT", "setting": "[2]; [5]", "result": "−1.868"},
      {"measurement": "ΔΔCt MITF", "setting": "[2]; Drug Resistance, 6 h at IC50 concentration, relative to negative control", "result": "−2.367"},
      {"measurement": "downregulation of the ERBB2/HER2 receptor", "setting": "[2]; HepG2, 6 hour timeframe", "result": 8, "unit": "fold"},
      {"measurement": "ΔΔCt ERBB2", "setting": "[2]; [6]", "result": 3.097},
      {"measurement": "ΔΔCt MAP1LC3A", "setting": "[2]; [6]", "result": "−1.26"},
      {"measurement": "ΔΔCt MAP2K2", "setting": "[2]; [6]", "result": "−1.607"},
      {"measurement": "ΔΔCt RASA1", "setting": "[2]; [6]", "result": "−1.904"},
      {"measurement": "ΔΔCt PIK3CA", "setting": "[2]; [7]", "result": "−1.639"},
      {"measurement": "ΔΔCt PTEN", "setting": "[2]; [7]", "result": "−1.446"},
      {"measurement": "ΔΔCt SMAD3", "setting": "[2]; TGF signaling, 6 h at IC50 concentration, relative to negative control", "result": 2.577},
      {"measurement": "cell proliferation (Ki67) in nanonail implanted 575 PDX tumors", "setting": "[3]", "result": "not significantly affected"},
      {"measurement": "IC50", "setting": "[4]", "result": 20, "unit": "µM"}
    ]}
  ]
}
